From patent US7932262B2 (Novartis AG, priority 2006, dated 2011)
Where two headings read alike, the source gives them in different places.

Legend:
[1] = target: T1, PDK1 kinase (Homo sapiens, UniProt O15530); test: PDK1 Kinase Alpha Screen Assay; format: biochemical; conditions: read-out: PDK1 IC50
T1 sequence (O15530 1-556): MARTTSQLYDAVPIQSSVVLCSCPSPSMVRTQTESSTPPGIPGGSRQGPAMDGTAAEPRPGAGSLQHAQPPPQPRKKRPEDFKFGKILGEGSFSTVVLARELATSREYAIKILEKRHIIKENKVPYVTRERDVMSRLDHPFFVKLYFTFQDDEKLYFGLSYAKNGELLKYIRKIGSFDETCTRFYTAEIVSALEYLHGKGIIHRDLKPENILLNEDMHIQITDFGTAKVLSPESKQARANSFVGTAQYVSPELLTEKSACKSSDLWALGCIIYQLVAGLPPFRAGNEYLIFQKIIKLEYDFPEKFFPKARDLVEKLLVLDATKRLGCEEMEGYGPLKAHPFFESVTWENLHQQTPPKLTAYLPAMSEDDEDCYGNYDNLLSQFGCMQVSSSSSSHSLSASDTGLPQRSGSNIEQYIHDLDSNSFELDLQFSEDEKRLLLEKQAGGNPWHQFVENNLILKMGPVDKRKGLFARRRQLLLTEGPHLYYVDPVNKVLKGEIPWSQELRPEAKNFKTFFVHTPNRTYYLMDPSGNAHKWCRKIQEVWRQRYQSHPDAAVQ
How it was run: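 Kinase inhibition measured as loss of AlphaScreen signal from antibody recognition of phosphorylated biotin-PDK1-4 peptide. Reactions contain 10 uM ATP and 50 nM peptide, run 3-18 hours before EDTA quench and overnight bead development at room temperature.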

[2] = tested on: PC-3 cells; test: Cell Proliferation Assay (Cell Titer Glo), PC-3 cell line; format: cell-based; conditions: Homo sapiens, read-out: CPEC50 PC3
How it was run: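 Cell Titer Glo luminescence, read after fresh medium replaced the dosing medium, gave viability of PC-3 cells plated at 1000 cells/well. Compounds, 1:3 serially diluted in DMSO at 500× and then in medium, were added after 3-5 h adhesion and incubated 3 days at 37° C.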

[3] = PC-3, Cell Proliferation Assay, PC3
[4] = PC-3, Cell Proliferation Assay, PC3 cells

IC50 ([1]; PDK1 Kinase Alpha Screen Assay) [µM]	EC50 [2, 3] [µM]	EC50 [2, 4] [µM]	IC50 [1] [µM]	EC50 ([2]; PC-3, PC3 cells) [µM]	SMILES
< 5	< 5				C#Cc1cc(OC2CCN(C(C)C)CC2)c2nc(Nc3ccc(N4CCOCC4)cc3)ncc2c1 [Compound 698, 6-ethynyl-8-(1-isopropylpiperidin-4-yloxy)-N-(4-morpholinophenyl)quinazolin-2-amine]
< 5	< 5				CC(C)N1CCC(Oc2cc(C#N)cc3cnc(Nc4ccc(N5CCOCC5)cc4)nc23)CC1 [Compound 699, 8-(1-isopropylpiperidin-4-yloxy)-2-(4-morpholinophenylamino)quinazoline-6-carbonitrile]
< 5	< 5				C#Cc1cc(OC2CCNCC2)c2nc(Nc3ccc(N4CCOCC4)cc3)ncc2c1 [Compound 700, 6-ethynyl-N-(4-morpholinophenyl)-8-(piperidin-4-yloxy)quinazolin-2-amine]
< 5	< 5				N#Cc1cc(OC2CCNCC2)c2nc(Nc3ccc(N4CCOCC4)cc3)ncc2c1 [Compound 701, 2-(4-morpholinophenylamino)-8-(piperidin-4-yloxy)quinazoline-6-carbonitrile]
< 5	< 5				c1csc(-c2cc(OC3CCNCC3)c3nc(Nc4ccc(N5CCOCC5)cc4)ncc3c2)n1 [Compound 702, N-(4-morpholinophenyl)-8-(piperidin-4-yloxy)-6-(thiazol-2-yl)quinazolin-2-amine]
< 5	< 5				c1cc(N2CCOCC2)ccc1Nc1ncc2cc(C3CC3)cc(OC3CCNCC3)c2n1 [Compound 703, 6-cyclopropyl-N-(4-mropholinophenyl)-8-(piperidin-4-yloxy)quinazolin-2-amine]
< 5	< 5				CC(C)N1CCC(Oc2cc(C3CC3)cc3cnc(Nc4ccc(N5CCOCC5)cc4)nc23)CC1 [Compound 704, 6-cyclopropyl-8-(1-isopropylpiperidin-4-yloxy)-N-(4-morpholinophenyl)quinazolin-2-amine]
< 5	< 5				C#Cc1cc(OC2CCNCC2)c2nc(Nc3ccc(C(=O)N4CCOCC4)cc3)ncc2c1 [Compound 705, (4-(6-ethynyl-8-(piperidin-4-yloxy)quinazolin-2-ylamino)phenyl)(morpholino)methanone]
< 5	< 5				c1csc(-c2cc(OC3CNC3)c3nc(Nc4ccc(N5CCOCC5)cc4)ncc3c2)n1 [Compound 706, 8-(azetidin-3-yloxy)-N-(4-morpholinophenyl)-6-(thiazol-2-yl)quinazolin-2-amine]
< 5		< 5			C#Cc1cc(OC2CNC2)c2nc(Nc3ccc(N4CCOCC4)cc3)ncc2c1 [Compound 707, 8-(azetidin-3-yloxy)-6-ethynyl-N-(4-morpholinophenyl)quinazolin-2-amine]
< 5		< 5			C#Cc1cc(OC2CCNCC2)c2nc(Nc3ccc(C(=O)N4CCOCC4)cc3)ncc2c1Cl [Compound 708, (4-(5-chloro-6-ethynyl-8-(piperidin-4-yloxy)quinazolin-2-ylamino)phenyl)(morpholino)methanone]
< 5		< 5			CC(C)Cn1cc(-c2ccc3cnc(Nc4ccc(S(=O)(=O)NCCCN5CCCC5)cc4)nc3c2)cn1 [Compound 709, 4-(7-(1-isobutyl-1H-pyrazol-4-yl)quinazolin-2-ylamino)-N-(3-(pyrrolidin-1-yl)propyl)benzenesulfonamide]
< 5		< 5			CC(C)Cn1cc(-c2ccc3cnc(Nc4ccc(S(=O)(=O)NCCN5CCOCC5)cc4)nc3c2)cn1 [Compound 710, 44-(7-(1-isobutyl-1H-pyrazol-4-yl)quinazolin-2-ylamino)-N-(2-morpholinoethyl)benzenesulfonamide]
< 5		< 5			CC(C)Cn1cc(-c2ccc3cnc(Nc4ccc(S(=O)(=O)NCCN5CCCCC5)cc4)nc3c2)cn1 [Compound 711, 4-(7-(1-isobutyl-1H-pyrazol-4-yl)quinazolin-2-ylamino)-N-(2-(piperidin-1-yl)ethyl)benzenesulfonamide]
< 5		< 5			CC(C)Cn1cc(-c2ccc3cnc(Nc4ccc(S(=O)(=O)NCCN5CCN(C)CC5)cc4)nc3c2)cn1 [Compound 712, 4-(7-(1-isobutyl-1H-pyrazol-4-yl)quinazolin-2-ylamino)-N-(2-(4-methylpiperazin-1-yl)ethyl)benzenesulfonamide]
< 5		< 5			CC(C)Cn1cc(-c2ccc3cnc(Nc4ccc(S(=O)(=O)NCCN5CCCC5)cc4)nc3c2)cn1 [Compound 713, 4-(7-(1-isobutyl-1H-pyrazol-4-yl)quinazolin-2-ylamino)-N-(2-(pyrrolidin-1-yl)ethyl)benzenesulfonamide]
< 5		< 5			C#Cc1cc2cnc(Nc3ccc(S(N)(=O)=O)cc3)nc2cc1OC1CCN(C(C)C)CC1 [Compound 714, 4-(6-ethynyl-7-(1-isopropylpiperidin-4-yloxy)quinazolin-2-ylamino)benzenesulfonamide]
			< 5	< 5	Cn1cc(-c2cc(Cl)cc3cnc(Nc4ccc(S(N)(=O)=O)cc4)nc23)cn1 [Compound 926, 4-(6-chloro-8-(1-methyl-1H-pyrazol-4-yl)quinazolin-2-ylamino)benzenesulfonamide]
			< 5	< 5	NS(=O)(=O)c1ccc(Nc2ncc3cc(Cl)cc(-c4ccc(NCCN5CCCC5)nc4)c3n2)cc1 [Compound 927, 4-(6-choro-8-(6-(2-(pyrrolidin-1-yl)ethylamino)pyridin-3-yl)quinazolin-2-ylamino)benzenesulfonamide]
			< 5	< 5	Nc1ncc(-c2cccc3cnc(Nc4ccc(S(N)(=O)=O)cc4)nc23)cc1C(F)(F)F [Compound 929, 4-(8-(6-amino-5-(trifluoromethyl)pyridin-3-yl)quinazolin-2-ylamino)benzenesulfonamide]
			< 5	< 5	Nc1cc(C(F)(F)F)c(-c2cccc3cnc(Nc4ccc(S(N)(=O)=O)cc4)nc23)cn1 [Compound 930, 4-(8-(6-amino-4-(trifluoromethyl)pyridin-3-yl)quinazolin-2-ylamino)benzenesulfonamide]
			< 5	5 to 10	Cn1cc(-c2cccc3cnc(Nc4ccc(S(N)(=O)=O)cc4)nc23)cn1 [Compound 931, 4-(8-(1-methyl-1H-pyrazol-4-yl)quinazolin-2-ylamino)benzenesulfonamide]
			< 5	5 to 10	NS(=O)(=O)c1ccc(Nc2ncc3cccc(CNCCN4CCCC4)c3n2)cc1 [Compound 935, 4-(8-((2-(pyrrolidin-1-yl)ethylamino)methyl)quinazolin-2-ylamino)benzenesulfonamide]
			< 5	< 5	CN(C)[C@H]1CCN(Cc2cccc3cnc(Nc4ccc(S(N)(=O)=O)cc4)nc23)C1 [Compound 936, (S)-4-(8-((3-(dimethylamino)pyrrolidin-1-yl)methyl)quinazolin-2-ylamino)benzenesulfonamide]
			< 5	5 to 10	CN1CCC(NCc2cccc3cnc(Nc4ccc(S(N)(=O)=O)cc4)nc23)CC1 [Compound 937, 4-(8-((1-methylpiperidin-4-ylamino)methyl)quinazolin-2-ylamino)benzenesulfonamide]
			< 5	5 to 10	CN(C)[C@@H]1CCN(Cc2cccc3cnc(Nc4ccc(S(N)(=O)=O)cc4)nc23)C1 [Compound 938, (R)-4-(8-((3-(dimethylamino)pyrrolidin-1-yl)methyl)quinazolin-2-ylamino)benzenesulfonamide]
			< 5	< 5	Cc1ccc(-c2ccc3cnc(Nc4ccc(S(N)(=O)=O)cc4)nc3c2)c(F)n1 [Compound 939, 4-(7-(2-fluoro-6-methylpyridin-3-yl)quinazolin-2-ylamino)benzenesulfonamide]
			< 5	5 to 10	CC(C)N1CCC(c2c(O)ccc3cnc(Nc4ccc(F)cc4)nc23)CC1 [Compound 940, 2-(4-fluorophenylamino)-8-(1-isopropylpiperidin-4-yl)quinazolin-7-ol]
			< 5	< 5	NS(=O)(=O)c1ccc(Nc2ncc3cccc(-c4cncc(CN5CCCC5)c4)c3n2)cc1 [Compound 941, 4-(8-(5-(pyrrolidin-1-ylmethyl)pyridin-3-yl)quinazolin-2-ylamino)benzenesulfonamide]
			< 5	< 5	NS(=O)(=O)c1ccc(Nc2ncc3cccc(-c4cncc(CN5CCOCC5)c4)c3n2)cc1 [Compound 942, 4-(8-(5-(morpholinomethyl)pyridin-3-yl)quinazolin-2-ylamino)benzenesulfonamide]
